Assay: static efficiency test of sulfate scale inhibition
Conditions: 90° C., one hour after mixing anion and cation brine 1:1 (v/v), Ba2+ in solution; for inhibition efficiency, Brine A: SI dosage 1 ppm; for inhibition efficiency, Brine B: SI dosage 7.5 ppm; for inhibition efficiency, Brine C: SI dosage 5 ppm; for inhibition efficiency, Brine D: SI dosage 30 ppm
Experimental: Anion brine and cation brines A, B, C, and D were prepared according to Table 1. The preheated anion brine and cation brine were mixed at 1:1 (v/v) ratio to achieve the targeted concentration. Briefly. In the blank test, no scale inhibitor (SI) was added, but a known amount of various SI was added to other test bottles to understand the performance of various SIs. In the scale inhibition tests, inhibition performance or inhibition efficiency at 90° C., especially for barite inhibition at one hour after mixing of anion and cation brine with and without presence of SI was determined using the following equation:
[formula] • At where: • Ca is the concentration (mg/L) of Ba^2+ in solution after the one-hour test with scale inhibitor. • Cb is the concentration (mg/L) of Ba^2+ in solution in the blank after the one-hour test (without scale inhibitor). • Co is the concentration (mg/L) of the resulting Ba^2+ in synthetic water.
The SI dosages in Brine A, B, C and […] was 1, 7.5, 5, and 30 ppm, respectively.

Row | Structure (SMILES) | inhibition efficiency, Brine A | inhibition efficiency, Brine B | inhibition efficiency, Brine C | inhibition efficiency, Brine D
1 | O=P(O)(O)CN(CCN(CP(=O)(O)O)CP(=O)(O)O)CCN(CP(=O)(O)O)CP(=O)(O)O [DTPMP, diethylenetriamine penta(methylene phosphonic acid), reference compound] | 94% | 77% | 100% | 24%
2 | O=P(O)(O)CN(CC(O)COCC(O)C(OCC(O)CN(CP(=O)(O)O)CP(=O)(O)O)C(O)C(COCC(O)CN(CP(=O)(O)O)CP(=O)(O)O)OCC(O)CN(CP(=O)(O)O)CP(=O)(O)O)CP(=O)(O)O (stereo not shown) [Example 1, 1,3,5,6-Tetrakis{3-[bis(phosphonomethyl)amino]-2-hydroxypropoxy}-2,4-hexandiol] | 57% | 88% | 67% | 42%
3 | O=P(O)(O)CN(CCNCC(O)COCC(O)C(OCC(O)CNCCN(CP(=O)(O)O)CP(=O)(O)O)C(O)C(COCC(O)CNCCN(CP(=O)(O)O)CP(=O)(O)O)OCC(O)CNCCN(CP(=O)(O)O)CP(=O)(O)O)CP(=O)(O)O (stereo not shown) [Example 2, 12,14-bis(3-((2-(bis(phosphonomethyl)amino)ethyl)amino)-2-hydroxypropoxy)-2,23-(bis(phosphonomethyl)amino)-9,16-dioxa-2,5,20,23-tetraazatetracosane-7,11,13,18-tetraol] | 100% | 100% | 84% | 83%
4 | O=P(O)(O)CN(CCO)CC(O)COCC(O)C(OCC(O)CN(CCO)CP(=O)(O)O)C(O)C(COCC(O)CN(CCO)CP(=O)(O)O)OCC(O)CN(CCO)CP(=O)(O)O (stereo not shown) [Example 3, 10,12-bis(2-hydroxy-3-((2-hydroxyethyl)(phosphonomethyl)amino)propoxy)-3,18-bis(phosphonomethyl)-7,14-dioxa-3,18-diazaicosane-1,5,9,11,16,20-hexaol] | 48% | 36% | 71% | 5%
5 | CN(CC(O)COCC(O)C(OCC(O)CN(C)CP(=O)(O)O)C(O)C(COCC(O)CN(C)CP(=O)(O)O)OCC(O)CN(C)CP(=O)(O)O)CP(=O)(O)O (stereo not shown) [Example 4] | 23% | 7% | 5% | 2%
6 | O=P(O)(O)CN(CC(O)COCC(CO)OCC(O)CN(CP(=O)(O)O)CP(=O)(O)O)CP(=O)(O)O (stereo not shown) [Example 5] | 42% | 86% | 86% | 42%
7 | O=P(O)(O)CN(CC(O)COCCCCOCC(O)CN(CP(=O)(O)O)CP(=O)(O)O)CP(=O)(O)O (stereo not shown) [Example 6, 3,3-(butane-1,4-diylbis(oxy))bis(1-(bis(phosphonomethyl))propan-2-ol)] | 47% | 63% | 98% | 6%

From US20260234464A1, “POLYALKYL PHOSPHONATED POLYOL ETHER BASED SCALE INHIBITORS” (ChampionX LLC, priority 2023, published 2026)
